According to US20050197338A1, “Substituted pyrazole urea compounds for the treatment of inflammation” (priority 2003, published 2005):

These compounds were tested against T1, human IKK-2 (rhIKK-2 homodimer) (Homo sapiens, UniProt O14920) (assay: IKK-2 Resin Enzyme Assay (Human IKK-2 Enzyme Assay)). Details: not given.
T1 construct: FLAG (DYKDDDDKD) (C); made in house; host or cells: insect cells (baculovirus, pFastBac)
T1 sequence (O14920 1-756): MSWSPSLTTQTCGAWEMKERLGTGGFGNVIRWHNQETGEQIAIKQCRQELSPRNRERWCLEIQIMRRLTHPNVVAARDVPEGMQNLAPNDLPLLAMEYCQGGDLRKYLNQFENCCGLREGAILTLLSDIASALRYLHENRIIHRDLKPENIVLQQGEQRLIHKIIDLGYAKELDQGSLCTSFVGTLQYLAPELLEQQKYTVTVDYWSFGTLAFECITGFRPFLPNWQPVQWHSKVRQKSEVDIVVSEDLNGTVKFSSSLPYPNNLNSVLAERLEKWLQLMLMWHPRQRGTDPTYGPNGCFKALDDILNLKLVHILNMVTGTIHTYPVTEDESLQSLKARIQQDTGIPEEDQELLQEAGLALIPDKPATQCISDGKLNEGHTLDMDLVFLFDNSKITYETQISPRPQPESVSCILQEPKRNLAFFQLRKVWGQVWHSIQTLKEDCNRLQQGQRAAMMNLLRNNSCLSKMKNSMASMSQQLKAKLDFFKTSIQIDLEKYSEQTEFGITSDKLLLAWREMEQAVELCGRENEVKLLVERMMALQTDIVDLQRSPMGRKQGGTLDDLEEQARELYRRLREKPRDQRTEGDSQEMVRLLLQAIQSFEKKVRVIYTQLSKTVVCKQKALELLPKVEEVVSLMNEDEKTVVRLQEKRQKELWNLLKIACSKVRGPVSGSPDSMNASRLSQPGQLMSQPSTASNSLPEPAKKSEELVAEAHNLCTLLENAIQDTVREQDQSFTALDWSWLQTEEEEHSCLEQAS
Format: biochemical
Procedure, shortened: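 C-terminally FLAG-tagged human IKK-2 homodimer, baculovirus-expressed in insect cells and anti-FLAG purified. Reaction mix: 5 μM biotinylated IκBα peptide (Ser32/Ser36 region), 1 μM ATP with [γ-33P]ATP, 2 mM MgCl2, 2 mM MnCl2, 10 mM NaF, 1 mM DTT, 25 mM HEPES pH 7.6. Incubated 30 min at 25 °C; IC50 derived.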

| Structure (SMILES) | IC50 |
| --- | --- |
| NC(=O)Nc1cn(-c2cccc(-c3ccc(C(=O)N4CCC(=O)CC4)cc3)c2)nc1C(N)=O [Example 90, 4-[(aminocarbonyl)amino]-1-{4′-[(4-oxopiperidin-1-yl)carbonyl]-1,1′-biphenyl-3-yl}-1H-pyrazole-3-carboxamide] | 2.81 µM |

Same assay, conditions: human IKK-2, resin enzyme assay; read-out: IC50 (μM) hIKK-2

| Structure (SMILES) | IC50 |
| --- | --- |
| CC(C)(C)OC(=O)COc1ccc(F)cc1-c1ccc(-n2cc(NC(N)=O)c(C(N)=O)n2)cc1 [Example 182, tert-butyl [(4′-{3-(aminocarbonyl)-4-[(aminocarbonyl)amino]-1H-pyrazol-1-yl}-5-fluoro-1,1′-biphenyl-2-yl)oxy]acetate] | 11.2 µM |
| CNC(=O)Nc1cn(-c2ccc(I)cc2)nc1C(N)=O [Example 17, 1-(4-iodophenyl)-4-{[(methylamino)carbonyl]amino}-1H-pyrazole-3-carboxamide] | 1.72 µM |
| CNC(=O)c1ccc(-c2ccc(-n3cc(NC(N)=O)c(C(N)=O)n3)cc2)cc1F [Example 152, 4-[(aminocarbonyl)amino]-1-{3′-fluoro-4′-[(methylamino)carbonyl]-1,1′-biphenyl-4-yl}-1H-pyrazole-3-carboxamide] | 0.11 µM |
| CCOc1cc(-n2cc(NC(N)=O)c(C(N)=O)n2)ccc1-c1cccc(OCC#N)c1 [Example 231, 4-[(aminocarbonyl)amino]-1-[3′-(cyanomethoxy)-2-ethoxy-1,1′-biphenyl-4-yl]-1H-pyrazole-3-carboxamide] | 4.88 µM |
| NC(=O)Nc1cn(-c2ccc(-c3ccc(C(=O)O)cc3)cc2)nc1C(N)=O [Example 142, 4′-{3-(aminocarbonyl)-4-[(aminocarbonyl)amino]-1H-pyrazol-1-yl}-1,1′-biphenyl-4-carboxylic acid] | 0.17 µM |
| CC(C)c1cccc(-c2cccc(-n3cc(NC(N)=O)c(C(N)=O)n3)c2)c1 [Example 352, 4-[(aminocarbonyl)amino]-1-(3′-isopropyl-1,1′-biphenyl-3-yl)-1H-pyrazole-3-carboxamide] | > 20 µM |
| CC(C)NC(=O)c1cccc(-c2ccc(-n3cc(NC(N)=O)c(C(N)=O)n3)cc2)c1 [Example 148, 4-[(aminocarbonyl)amino]-1-{3′-[(isopropylamino)carbonyl]-1,1′-biphenyl-4-yl}-1H-pyrazole-3-carboxamide] | 7.14 µM |
| Cc1cccc(-c2cccc(-n3cc(NC(N)=O)c(C(N)=O)n3)c2)c1 [Example 340, 4-[(aminocarbonyl)amino]-1-(3′-methyl-1,1′-biphenyl-3-yl)-1H-pyrazole-3-carboxamide] | > 20 µM |
| NC(=O)Nc1cn(-c2ccc(-c3ccc(C(=O)NCc4ccc(F)cc4)c(F)c3)cc2)nc1C(N)=O [Example 155, 4-[(aminocarbonyl)amino]-1-(3′-fluoro-4′-{[(4-fluorobenzyl)amino]carbonyl}-1,1′-biphenyl-4-yl)-1H-pyrazole-3-carboxamide] | 0.45 µM |
| NC(=O)Nc1cn(-c2ccc(-c3ccccc3O)c(C(F)(F)F)c2)nc1C(N)=O [Example 234, 4-[(aminocarbonyl)amino]-1-[2′-hydroxy-2-(trifluoromethyl)-1,1′-biphenyl-4-yl]-1H-pyrazole-3-carboxamide] | 1.71 µM |
| NC(=O)Nc1cn(-c2ccc(Sc3ccc(F)cc3)c(Cl)c2)nc1C(N)=O [Example 221, 4-[(aminocarbonyl)amino]-1-{3-chloro-4-[(4-fluorophenyl)thio]phenyl}-1H-pyrazole-3-carboxamide] | 2.6 µM |
| CNC(=O)c1ccc(-c2cccc(-n3cc(NC(N)=O)c(C(N)=O)n3)c2)cc1 [Example 74, 4-[(aminocarbonyl)amino]-1-{4′-[(methylamino)carbonyl]-1,1′-biphenyl-3-yl}-1H-pyrazole-3-carboxamide] | 0.94 µM |
| NC(=O)Nc1cn(-c2ccc(Cl)c(Cl)c2)nc1C(N)=O [Example 188, 4-[(aminocarbonyl)amino]-1-(3,4-dichlorophenyl)-1H-pyrazole-3-carboxamide] | 0.46 µM |
| CC(C)(C)c1ccc(-c2cccc(-n3cc(NC(N)=O)c(C(N)=O)n3)c2)cc1 [Example 362, 4-[(aminocarbonyl)amino]-1-(4′-tert-butyl-1,1′-biphenyl-3-yl)-1H-pyrazole-3-carboxamide] | > 20 µM |
| Cc1cc(Sc2ccc(F)cc2)ccc1-n1cc(NC(N)=O)c(C(N)=O)n1 [Example 228, 4-[(aminocarbonyl)amino]-1-{4-[(4-fluorophenyl)thio]-2-methylphenyl}-1H-pyrazole-3-carboxamide] | > 20 µM |
| Cc1cc(-n2cc(NC(N)=O)c(C(N)=O)n2)ccc1-c1cccc(O)c1 [Example 239, 1-(3′-hydroxy-2-methyl-biphenyl-4-yl)-4-ureido-1H-pyrazole-3-carboxylic acid amide] | 0.161 µM |
| NC(=O)Nc1cn(-c2cccc(-c3cccc(C(F)(F)F)c3)c2)nc1C(N)=O [Example 367, 4-[(aminocarbonyl)amino]-1-[3′-(trifluoromethyl)-1,1′-biphenyl-3-yl]-1H-pyrazole-3-carboxamide] | > 20 µM |

| Structure (SMILES) | IC50 |
| --- | --- |
| NC(=O)Nc1cn(-c2cccc(-c3cc(Cl)cc(Cl)c3)c2)nc1C(N)=O [Example 370, 4-[(aminocarbonyl)amino]-1-(3′,5′-dichloro-1,1′-biphenyl-3-yl)-1H-pyrazole-3-carboxamide] | > 20 µM |
| Cc1cc(-n2cc(NC(N)=O)c(C(N)=O)n2)ccc1-c1ccccc1O [Example 240, 1-(2′-Hydroxy-2-methyl-biphenyl-4-yl)-4-ureido-1H-pyrazole-3-carboxylic acid amide] | 2.02 µM |
| NC(=O)Nc1cn(-c2ccc(-c3cccc(C(=O)O)c3)cc2)nc1C(N)=O [Example 96, 4′-{3-(aminocarbonyl)-4-[(aminocarbonyl)amino]-1H-pyrazol-1-yl}-1,1′-biphenyl-3-carboxylic acid] | 1.45 µM |
| NC(=O)Nc1cn(-c2cccc(-c3ccc(Cl)cc3)c2)nc1C(N)=O [Example 348, 4-[(aminocarbonyl)amino]-1-(4′-chloro-1,1′-biphenyl-3-yl)-1H-pyrazole-3-carboxamide] | > 20 µM |
| NC(=O)Nc1cn(-c2ccc(-c3cccc(OC(F)(F)F)c3)cc2)nc1C(N)=O [Example 24, 4-[(aminocarbonyl)amino]-1-[3′-(trifluoromethoxy)-1,1′-biphenyl-4-yl]-1H-pyrazole-3-carboxamide] | 7.73 µM |
| NC(=O)Nc1nn(-c2ccc(-c3ccc(C(F)(F)F)cc3)cc2)cc1C(N)=O [Example 132] | 18.8 µM |
| CC(=O)COc1cccc(-c2ccc(-n3cc(NC(N)=O)c(C(N)=O)n3)cc2)c1 [Example 253, 4-[(aminocarbonyl)amino]-1-[3′-(2-oxopropoxy)-1,1′-biphenyl-4-yl]-1H-pyrazole-3-carboxamide] | 1.01 µM |
| NC(=O)Nc1cn(-c2ccc(Sc3ccccc3O)cc2)nc1C(N)=O [Example 208, 1-(1-(4-(2-hydroxyphenylthio)phenyl)-3-carbamoyl-1H-pyrazol-4-yl)urea] | 0.328 µM |
| NC(=O)Nc1cn(-c2cccc(-c3cncnc3)c2)nc1C(N)=O [Example 66, 4-[(aminocarbonyl)amino]-1-(3-pyrimidin-5-ylphenyl)-1H-pyrazole-3-carboxamide] | 5.2 µM |
| NC(=O)Nc1cn(-c2ccc(-c3cccc(Cl)c3Cl)cc2)nc1C(N)=O [Example 133, 4-[(aminocarbonyl)amino]-1-(2′,3′-dichloro-1,1′-biphenyl-4-yl)-pyrazole-3-carboxamide] | 1.63 µM |
| CNC(=O)COc1cccc(-c2ccc(-n3cc(NC(N)=O)c(C(N)=O)n3)cc2)c1 [Example 383, 4-[(aminocarbonyl)amino]-1-{3′-[2-(methylamino)-2-oxoethoxy]-1,1′-biphenyl-4-yl}-1H-pyrazole-3-carboxamide] | 0.07 µM |
| NC(=O)Nc1cn(-c2ccc(Sc3ccc(F)cc3)cc2Cl)nc1C(N)=O [Example 376, 1-(1-(4-(4-fluorophenylthio)-2-chlorophenyl)-3-carbamoyl-1H-pyrazol-4-yl)urea] | 0.31 µM |
| N#CCOc1cccc(-c2ccc(-n3cc(NC(N)=O)c(C(N)=O)n3)cc2Cl)c1 [Example 220, 4-[(aminocarbonyl)amino]-1-[2-chloro-3′-(cyanomethoxy)-1,1′-biphenyl-4-yl]-1H-pyrazole-3-carboxamide] | 1.57 µM |
| NC(=O)Nc1cn(-c2ccc3c(c2)OCO3)nc1C(N)=O [Example 213, 4-[(aminocarbonyl)amino]-1-(1,3-benzodioxol-5-yl)-1H-pyrazole-3-carboxamide] | 3.91 µM |
| NC(=O)Nc1cn(-c2cccc(-c3ccc[nH]3)c2)nc1C(N)=O [Example 68] | 0.55 µM |
| NC(=O)Nc1cn(-c2ccc(-c3cccc(OCC(=O)O)c3)cc2)nc1C(N)=O [Example 258, [(4′-{3-(aminocarbonyl)-4-[(aminocarbonyl)amino]-1H-pyrazol-1-yl}-1,1′-biphenyl-3-yl)oxy]acetic acid] | 1.02 µM |
